This data set deals with conscious rat. Put plainly: Effect on the cardiovascular system (heart rate) of conscious rat. In kind it is in vivo. The conditions noted are these: conscious SD rat, s.c. 1, 3 and 10 mg/kg at 30 minute intervals, FIG. 2. How it is done: SD male rats of 7 weeks of age (Charles River Laboratories Japan Inc.) were purchased and used when they are 8 weeks of age. The rats were anesthetized by intraperitoneal administration of pentobarbital at 60 mg/kg; the back central region and the femoral region were cut open; a polyethylene tube (SP-31, Natsume Seisakusho Co., Ltd.) connected to a polyurethane tube (BC-3.5P, American Access Technologies) was inserted from the back to the femoral region, to place the polyethylene tube in femoral artery. After the femoral region was sutured, a flexible stainless steel pipe containing the polyethylene tube was sutured and fixed to the back skin. Heparin at 100 IU to 200 IU/mL was filled into the polyethylene tube and the polyurethane tube for prevention of blood clotting. After surgical operation, the rats were placed and grown back in 5-compartment wire mesh cage. […]
The heart rate of the rats was determined, by sending the pulse wave obtained in the blood pressure amplifier (AP-641G, Nihon Kohden Corp.) attached to the Life Kit for monitoring blood pressure to an instantaneous heart rate meter unit (AT-601T, Nihon Kohden Corp.). The heart rate was recorded on the chart paper in a thermal multirecorder (RIA-1300A, Nihon Kohden Corp.) by using a polygraph (RM-6000, Nihon Kohden Corp.). […]

The source of these data is patent publication US8198330B2, “Therapeutic or prophylactic agent for diabetes, obesity, dyslipidemia or metabolic syndrome comprising benzylamine derivative or pharmaceutically acceptable acid addition salt thereof” (Toray Industries, Inc., priority 2008, dated 2012).

For `COc1cc(CN[C@@H](C)[C@H](O)c2ccc(O)c(NS(C)(=O)=O)c2)cc(OC)c1` [Example 1, N-(5-((1R,2S)-2-(3,5-Dimethoxybenzylamino)-1-hydroxypropyl)-2-hydroxyphenyl)methanesulfonamide], the “influence on heart rate” value is recorded as “did not have any influence on rat heart rate”.
